The source of these data is ChEMBL document CHEMBL1140568, “Trisubstituted pyrimidines as transient receptor potential vanilloid 1 (TRPV1) antagonists with improved solubility” (Bioorg Med Chem Lett, 2007).

In brackets after ≈: the same amount, converted by molar mass.

Series [1] can be described thus: AUC (0 to infinity) in Sprague-Dawley rat at 1 mg/kg, iv. The format is ADME, organism-based. The arrangement: time infinity, dose 1 mg/kg, route intravenous. Conditions: plasma.
The nature of series [2]: Clearance in Sprague-Dawley rat at 1 mg/kg, iv. To be noted: in vivo. The format is ADME, organism-based. The arrangement: dose 1 mg/kg, route intravenous.
The nature of series [3]: Volume of distribution at steady state in Sprague-Dawley rat at 1 mg/kg, iv. The format is ADME, organism-based. Conditions: in vivo, read-out: Vdss. More on the design: dose 1 mg/kg, route intravenous.
The nature of series [4]: Half life in Sprague-Dawley rat at 1 mg/kg, iv. The format is ADME, organism-based. More on the design: dose 1 mg/kg, route intravenous. Conditions: in vivo.
The target of series [5] is T1, Transient receptor potential cation channel subfamily V member 1 (Rattus norvegicus, UniProt O35433). In words: Antagonist activity at rat TRPV1 expressed in CHO cells assessed inhibition of capsaicin induced calcium influx. It is filed as functional, cell-based.
T1 sequence (O35433 whole entry): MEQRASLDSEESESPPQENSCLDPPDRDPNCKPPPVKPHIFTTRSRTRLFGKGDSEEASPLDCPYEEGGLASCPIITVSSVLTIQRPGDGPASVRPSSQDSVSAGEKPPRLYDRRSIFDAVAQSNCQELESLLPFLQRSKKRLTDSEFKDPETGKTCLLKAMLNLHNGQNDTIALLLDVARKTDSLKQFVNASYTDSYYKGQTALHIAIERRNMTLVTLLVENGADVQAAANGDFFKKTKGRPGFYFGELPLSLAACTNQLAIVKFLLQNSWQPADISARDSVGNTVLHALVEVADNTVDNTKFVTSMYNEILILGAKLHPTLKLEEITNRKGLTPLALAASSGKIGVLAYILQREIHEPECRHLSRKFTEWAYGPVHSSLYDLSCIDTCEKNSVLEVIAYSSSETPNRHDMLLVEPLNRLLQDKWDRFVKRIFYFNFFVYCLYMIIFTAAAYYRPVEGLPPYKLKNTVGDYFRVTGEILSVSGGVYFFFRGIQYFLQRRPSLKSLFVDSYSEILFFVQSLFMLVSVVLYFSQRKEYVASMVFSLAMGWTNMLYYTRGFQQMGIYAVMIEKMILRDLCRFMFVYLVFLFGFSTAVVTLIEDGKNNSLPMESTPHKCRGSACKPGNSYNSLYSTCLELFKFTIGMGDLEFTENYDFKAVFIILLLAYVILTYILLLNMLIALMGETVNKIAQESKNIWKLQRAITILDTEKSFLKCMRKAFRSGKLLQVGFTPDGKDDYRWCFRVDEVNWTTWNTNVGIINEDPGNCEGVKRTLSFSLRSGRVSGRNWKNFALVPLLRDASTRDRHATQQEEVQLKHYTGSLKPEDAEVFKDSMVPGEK
The target in series [6] is T1, Transient receptor potential cation channel subfamily V member 1. In words: Antagonist activity at rat TRPV1 expressed in CHO cells assessed inhibition of acid induced calcium influx. It is filed as functional, cell-based.
The nature of series [7]: Aqueous solubility in 0.01N HCl. It is filed as physicochemical.
Series [8] is described as follows: Aqueous solubility in PBS at pH 7. It is filed as physicochemical.
Series [9] in a line: Aqueous solubility in fasted-state stimulated intestinal fluid at pH 6.8. It is filed as physicochemical. Conditions: fasted-state simulated intestinal fluid.
Series [10] in a line: AUC (0 to infinity) in Sprague-Dawley rat at 5 mg/kg, po. It is filed as ADME, organism-based. More on the design: time infinity, dose 5 mg/kg, route oral. To be noted: plasma.
The nature of series [11]: Cmax in Sprague-Dawley rat at 5 mg/kg, po. It is filed as ADME, organism-based. The arrangement: dose 5 mg/kg, route oral. To be noted: in vivo.
The nature of series [12]: Oral bioavailability in Sprague-Dawley rat at 5 mg/kg. Conditions: in vivo. It is filed as ADME, organism-based.

Turning to `CC(=O)Nc1nc2c(Oc3cc(-c4ccc(C(F)(F)F)cc4)nc(C4=CCN(CC(C)C)CC4)n3)cccc2s1`, the AUC(0-inf) in [1] turned out to be 258 ng·h/mL. Moreover, the clearance in series [2] was 67.3 mL/min/kg. For the same compound, the Vd in series [3] was 6.38 L/kg. Further, the half-life in [4] is 120 min.

For the compound `CC(=O)Nc1nc2c(Oc3cc(-c4ccc(C(F)(F)F)cc4)nc(N4CCC(O)CC4)n3)cccc2s1`, the values for the IC50 in series [5] and in series [6] were 35 nM and 90 nM, respectively. Moreover, the solubility is 21 µg/mL (≈ 39.7 µM) in series [7], 2 µg/mL (≈ 3.78 µM) in [8] and 12 µg/mL (≈ 22.7 µM) in series [9].

Consider `CC(=O)Nc1nc2c(Oc3cc(-c4ccc(C(F)(F)F)cc4)nc(NCC4CCCCN4CC(C)C)n3)cccc2s1` (configuration not stated), for which the IC50 in series [5] turned out to be 6.1 nM; in series [6], 11 nM. Further, the solubility in series [7] was at least 200 µg/mL; in series [8], 9.1 µg/mL (≈ 15.2 µM); in [9], 190 µg/mL (≈ 317 µM). The same compound registered an AUC(0-inf) in series [1] of 351 ng·h/mL. In series [2], this compound had a clearance of 47.7 mL/min/kg. Also, the Vd in [3] amounted to 8.29 L/kg. This compound showed a half-life in series [4] of 156 min.

As to `CC(=O)Nc1nc2c(Oc3cc(-c4ccc(C(F)(F)F)cc4)nc(N4CCCCC4)n3)cccc2s1`, the IC50 in series [5] amounted to 5.1 nM; in series [6], 1.5 nM. Moreover, the figures for the solubility in series [7], in [8] and in series [9] were at most 1 µg/mL, at most 1 µg/mL and 2.8 µg/mL (≈ 5.45 µM), respectively.

Take `CC(=O)Nc1nc2c(Oc3cc(-c4ccc(C(F)(F)F)cc4)nc(N4CCOCC4)n3)cccc2s1`: the results for the IC50 in series [5] and in series [6] were 28 nM and 1.1 nM, respectively. Further, the results for the solubility in series [7], in series [8] and in series [9] were at most 1 µg/mL, at most 1 µg/mL and 1.4 µg/mL (≈ 2.72 µM), respectively.

Regarding `CC(=O)Nc1nc2c(Oc3cc(-c4ccc(C(F)(F)F)cc4)nc(N)n3)cccc2s1`, the results for the IC50 in series [5] and in [6] were 12 nM and 4.8 nM, respectively. The solubility was 4.7 µg/mL (≈ 10.6 µM) in [7], 8.8 µg/mL (≈ 19.8 µM) in series [8] and 3.5 µg/mL (≈ 7.86 µM) in series [9].

Consider `CC(=O)Nc1nc2c(Oc3cc(-c4ccc(C(F)(F)F)cc4)nc(NC(C)c4ccccn4)n3)cccc2s1` (configuration not stated), for which the values for the IC50 in [5] and in series [6] were 1.5 nM and 1.6 nM, respectively. For the same compound, the figures for the solubility in series [7], in series [8] and in [9] were at least 200 µg/mL, 6.7 µg/mL (≈ 12.2 µM) and 150 µg/mL (≈ 272 µM), respectively. The AUC(0-inf) worked out at 743 ng·h/mL in series [1] and 899 ng·h/mL in [10]. Also, in [2], the clearance is 22.5 mL/min/kg. The Vd in [3] was 6.44 L/kg. The compound further showed a half-life in [4] of 330 min. For the same compound, the Cmax in series [11] is 280 ng/mL. For the same compound, in series [12], the bioavailability worked out at 24%.

Consider `CC(=O)Nc1nc2c(Oc3cc(-c4ccc(C(F)(F)F)cc4)ncn3)cccc2s1` [AMG-517], for which the solubility in series [7] and in [8] was below 1 µg/mL throughout.

With `CC(=O)Nc1nc2c(Oc3cc(-c4ccc(C(F)(F)F)cc4)nc(N4CCC(C(=O)O)CC4)n3)cccc2s1`, the IC50 was 410 nM in series [5] and 27 nM in [6]. The solubility in series [7] was at most 1 µg/mL; in [8], 6 µg/mL (≈ 10.8 µM); in series [9], 3.4 µg/mL (≈ 6.1 µM).

Consider `CC(=O)Nc1nc2c(Oc3cc(-c4ccc(C(F)(F)F)cc4)nc(NCC4CCN(CC(C)C)CC4)n3)cccc2s1`, for which the half-inhibitory concentration (IC50) was determined as 51 nM in series [5] and 64 nM in [6]. The solubility in [7] is at least 200 µg/mL; in [8], 9.4 µg/mL (≈ 15.7 µM); in [9], at least 200 µg/mL.

A word on the AUC(0-inf): it is total exposure, with the tail of the curve extrapolated. Lower therefore signals less exposure. The clearance is the volume of plasma or blood freed of the substance per unit of time. A lower clearance goes with a low capacity for elimination. By half-life is commonly meant the time in which the quantity being followed falls by half. Higher therefore signals slow decline. What is called IC50 is the concentration that gives 50% inhibition. As a reminder, the solubility is the concentration that dissolves in the medium under given conditions. The term Cmax denotes the highest concentration seen after dosing. A word on the bioavailability: it is the share of a dose that reaches the circulation, judged against a reference dose that is usually intravenous.
